In article PMC4809600, “The Influence of Chronic Wound Extracts on Inflammatory Cytokine and Histatin Stability” (PLoS ONE, 2016):
Where no end group is shown, it is not given here.

Experiments:
[1] = Stability in chronic wound extracts (CWE), capillary zone electrophoresis; assay type: in vitro ADME, human; details: 37°C, CZE; for Percentage intact, CWE 2h / Percentage intact, CWE 4h / Percentage intact, CWE 8h / Percentage intact, CWE 16h / Percentage intact, CWE 24h / Percentage intact, CWE 48h / Percentage intact, CWE 72h / Percentage intact, CWE 96h: 1 mg/ml in PBS mixed 1:1 with CWE (1 mg/ml protein, pool of 5 donors) in PBS, UV 200 nm, ratio to imidazole
From the text: (§1) Debridement tissue was obtained from chronic ulcers of 15 patients with therapy resistant (arterio-venous) leg ulcers, according to procedures described earlier. In brief, moist, easily removable debridement material, essentially blood free, was collected from the ulcer surface and divided equally into two different solutions: (i) PBS (B. Braun, Melsungen, Germany), (ii) PBS with protease inhibitor cocktail (PIC) (1:100; v/v) (Sigma-Aldrich, Steinheim, Germany). The mixtures were gently shaken for 1 h at 4°C to elute proteins and centrifuged; the supernatants were stored at -80°C. Total protein content of the supernatant was measured using the BioRad Protein Assay (BioRad Laboratories, Hercules, California, USA) essentially as described by the supplier. Samples were diluted to 1 mg/ml protein and extracts of five different donors were pooled; three different pools of five donors were used in all experiments. The samples are referred to as chronic wound extracts (CWE).
(§2) To determine the stability of the different peptides in CWE, histatins and cytokines were dissolved in PBS at 1 mg/ml. Histatins and cytokines were incubated in a 1:1 ratio with (i) PBS, (ii) CWE in PBS, or (iii) CWE in PBS containing PIC, in a total volume of 25 μl. Imidazole (Sigma-Aldrich) was added as an internal standard, with a final concentration of 100 μg/ml. The mixtures were incubated at 37°C, and samples were taken at 0, 24, 48, 72 and 96 h. For histatins containing mixtures, additional samples were taken after 2, 4, 8 and 16 h of incubation.
(§3) The samples were analyzed with a BioFocus 2000 capillary zone electrophoresis system (Bio-Rad Laboratories, Hercules, CA, USA) equipped with an uncoated fused-silica capillary of internal diameter 50 μm and a length of 24 cm. Samples were loaded by pressure injection (5 psi/sec). Separation was performed at 10 kV (cathode at the detector side) at 20°C using 0.1 M phosphate buffer (pH 2.5) as electrolyte and monitored continuously at 200 nm. Peaks were quantified with the BioFocus Integrator software. In order to quantify the percentage of intact peptides remaining after incubation with CWE, the ratios of histatins, rhIL-6 or rhCXCL8 to internal standard was set at 100% at 0h, and the ratios at the other incubation time points were related to this.

[2] = Stability in CWE with protease inhibitor cocktail (PIC), capillary zone electrophoresis; assay type: in vitro ADME, human; details: 37°C, CZE, 0 h = 100%; for Percentage intact, CWE + PIC 2h / Percentage intact, CWE + PIC 4h / Percentage intact, CWE + PIC 8h / Percentage intact, CWE + PIC 16h / Percentage intact, CWE + PIC 24h / Percentage intact, CWE + PIC 48h / Percentage intact, CWE + PIC 72h / Percentage intact, CWE + PIC 96h: 1 mg/ml in PBS mixed 1:1 with CWE (1 mg/ml protein, pool of 5 donors) in PBS containing PIC (final 1:140 v/v), ratio to imidazole
From the text: as §1, §2, §3

RKFHEKHHSHREFPFYGDYGSNYLYDN [Hst2]
Percentage intact, CWE 2h ([1]; 0 h = 100%, experiment 1 of 3): 96.21% | Percentage intact, CWE 2h ([1]; 0 h = 100%, experiment 2 of 3): 97.4179% | Percentage intact, CWE 2h ([1]; 0 h = 100%, experiment 3 of 3): 80.1639% | Percentage intact, CWE 4h ([1]; 0 h = 100%, experiment 1 of 3): 78.5338% | Percentage intact, CWE 4h ([1]; 0 h = 100%, experiment 2 of 3): 80.0345% | Percentage intact, CWE 4h ([1]; 0 h = 100%, experiment 3 of 3): 54.5442% | Percentage intact, CWE 8h ([1]; 8 h, 0 h = 100%, experiment 1 of 3): 57.5027% | Percentage intact, CWE 8h ([1]; 8 h, 0 h = 100%, experiment 2 of 3): 66.6666% | Percentage intact, CWE 8h ([1]; 8 h, 0 h = 100%, experiment 3 of 3): 34.5662% | Percentage intact, CWE 16h ([1]; 0 h = 100%, experiment 1 of 3): 14.9136% | Percentage intact, CWE 16h ([1]; 0 h = 100%, experiment 2 of 3): 27.664% | Percentage intact, CWE 16h ([1]; 0 h = 100%, experiment 3 of 3): 7.724% | Percentage intact, CWE 24h ([1]; 24 h, 0 h = 100%, experiment 1 of 3): 4.675% | Percentage intact, CWE 24h ([1]; 24 h, 0 h = 100%, experiment 2 of 3): 5.495% | Percentage intact, CWE 24h ([1]; 24 h, 0 h = 100%, experiment 3 of 3): 8.834% | Percentage intact, CWE 48h ([1]; 0 h = 100%, experiment 2 of 3): 0.0001% | Percentage intact, CWE 48h ([1]; 0 h = 100%, experiment 3 of 3): 0.0001% | Percentage intact, CWE 72h ([1]; 0 h = 100%, experiment 2 of 3): 0.0001% | Percentage intact, CWE 72h ([1]; 0 h = 100%, experiment 3 of 3): 0.0001% | Percentage intact, CWE 96h ([1]; 0 h = 100%, experiment 2 of 3): 0.0001% | Percentage intact, CWE 96h ([1]; 0 h = 100%, experiment 3 of 3): 0.0001% | remaining at 8 h, 0.5 mg/ml ([1]; human, chronic wound extracts (CWE), 1 mg/ml in PBS mixed 1:1 with CWE (1 mg/ml protein, pools of 5 donors), 8 h, 0 h = 100%, mean of 3 independent experiments, read-out: Original amount of peptide remaining intact after 8 h in CWE): 53% | remaining at 24 h, 0.5 mg/ml ([1]; human, chronic wound extracts (CWE), 1 mg/ml in PBS mixed 1:1 with CWE (1 mg/ml protein, pools of 5 donors), 24 h, 0 h = 100%, mean of 3 independent experiments, read-out: Original amount of peptide remaining intact after 24 h in CWE): 6% | metabolised at 8 h, 0.5 mg/ml ([1]; human, chronic wound extracts (CWE), incubation with chronic wound extracts, 8 h, read-out: Breakdown (degradation) in CWE in 8 h): ~50% | Percentage intact, CWE + PIC 2h ([2]; experiment 1 of 3): 93.4426% | Percentage intact, CWE + PIC 2h ([2]; experiment 2 of 3): 92.5142% | Percentage intact, CWE + PIC 2h ([2]; experiment 3 of 3): 89.0301% | Percentage intact, CWE + PIC 4h ([2]; experiment 1 of 3): 91.5351% | Percentage intact, CWE + PIC 4h ([2]; experiment 2 of 3): 92.7977% | Percentage intact, CWE + PIC 4h ([2]; experiment 3 of 3): 86.7184% | Percentage intact, CWE + PIC 8h ([2]; experiment 1 of 3): 85.6684% | Percentage intact, CWE + PIC 8h ([2]; experiment 2 of 3): 89.4382% | Percentage intact, CWE + PIC 8h ([2]; experiment 3 of 3): 85.0239% | Percentage intact, CWE + PIC 16h ([2]; experiment 1 of 3): 76.054% | Percentage intact, CWE + PIC 16h ([2]; experiment 2 of 3): 80.3459% | Percentage intact, CWE + PIC 16h ([2]; experiment 3 of 3): 78.2959% | Percentage intact, CWE + PIC 24h ([2]; 24 h, experiment 1 of 3): 76.7074% | Percentage intact, CWE + PIC 24h ([2]; 24 h, experiment 2 of 3): 74.947% | Percentage intact, CWE + PIC 24h ([2]; 24 h, experiment 3 of 3): 84.5492% | Percentage intact, CWE + PIC 48h ([2]; experiment 1 of 3): 70.9832% | Percentage intact, CWE + PIC 48h ([2]; experiment 2 of 3): 66.2527% | Percentage intact, CWE + PIC 48h ([2]; experiment 3 of 3): 75.4922% | Percentage intact, CWE + PIC 72h ([2]; experiment 1 of 3): 69.8915% | Percentage intact, CWE + PIC 72h ([2]; experiment 2 of 3): 66.4949% | Percentage intact, CWE + PIC 72h ([2]; experiment 3 of 3): 68.9587% | Percentage intact, CWE + PIC 96h ([2]; experiment 1 of 3): 63.8972% | Percentage intact, CWE + PIC 96h ([2]; experiment 2 of 3): 62.3087% | Percentage intact, CWE + PIC 96h ([2]; experiment 3 of 3): 62.2105% | remaining at 24 h, 0.5 mg/ml ([2]; human, with protease inhibitor cocktail (PIC), CWE with protease inhibitor cocktail (final 1:140 v/v), 24 h, mean of 3 independent experiments, read-out: Remaining fraction of intact peptide after 24 h in CWE + PIC): 78%
